PMC11032351, “Epigenetic modulation through BET bromodomain inhibitors as a novel therapeutic strategy for progranulin-deficient frontotemporal dementia” (Scientific Reports, 2024)
Where two headings read alike, the source gives them in different places.

How the values were obtained:
PGRN protein levels [1] = test: PGRN quantification (Jess) in GRN R493X/+ NPCs; type: cell-based, human; details: 24 h
Procedure: (§1) PGRN capillary gel electrophoresis experiments were performed using Jess (Bio-Techne) and data were processed and analyzed using Compass for Simple Western software (version 6.0). Runs were conducted using EZ Standard Pack 1 12–230 kDa (Bio-Techne PS-ST01EZ-8), 12–230 kDa pre-filled plates (PS-PP03), 12–230 kDa separation module (SMW004), anti-rabbit HRP detection (DM-001), RePlex (RP-001), and total protein detection modules (DM-TP01, biotin labeling reagent 042-973) according to the manufacturer’s instructions, and with anti-PGRN primary (Abcam ab208777) diluted 1:50 in milk-free antibody dilution buffer (043–524). The following run settings were used for each experiment: separation time: 25 min, separation voltage: 375 V, RePlex purge time: 30 min, biotin labeling time: 30 min, antibody diluent time: 5 min, primary antibody time: 30 min, secondary antibody time: 30 min, total protein HRP time: 30 min. All intensity quantifications are normalized to the total protein assay quantification unless otherwise indicated.
(§2) For GRN^R493^X/+ NPCs, cells were grown to confluency in 6-well plates according to the above NPC culturing procedure. To each well was directly added 2 µL of 100 µM panobinostat, […], or DMSO only to produce final in-well concentrations of 100 nM or 1 µM, respectively (0.1% DMSO final concentration). […]

PGRN protein levels [2] = test: PGRN quantification (Jess) in GRN R493X/+ 14-day differentiated neurons; type: cell-based, human; details: GRN R493X/+ 14-day growth factor differentiated neurons, 24 h
Procedure: as §1, §2

recombinant BRD4 BD1 = biological target: recombinant BRD4 BD1; design: method as in PMID 31969702, PMID 32193360, doi:10.1002/anse.202200020; details: read-out: KD against recombinant BRD4 BD1; cited from earlier work
BRD4 protein levels = test: Immunoblotting of BRD4 in human NPCs; type: cell-based; details: co-treatment with MLN-4924 (1 µM) and mivebresib (1 µM)
Procedure: Gels were then transferred onto PVDF membranes (Immobilon-P, Millipore IPVH00010). […] Membranes were washed with TBST for 1 h, and developed with the chemiluminescence reagents used above.
NPCs were cultured normally in 6-well plates as described previously. […] Plates returned to the incubator. […] Plates returned to the incubator. After 4 h, to the indicated wells is directly added 1 µL 2 mM mivebresib (MedChem Express HY-100015) in DMSO for a final concentration of 1 µM, or 1 µL DMSO. All plates were returned to the incubator overnight. […] 200 µL of supernatant was then transferred to a fresh, labeled Eppendorf rube, which was then stored at − 20 °C prior to further analysis. Sample concentration was quantified using the BCA assay as described above, and normalized to 250 µg/mL in M-PER lysis buffer prior to PGRN quantification using the Jess.

recombinant BRD4 BD2 = biological target: recombinant BRD4 BD2; design: method as in PMID 31969702, PMID 32193360, doi:10.1002/anse.202200020; details: read-out: KD against recombinant BRD4 BD2; cited from earlier work
[3] = Pharmacokinetics in CD-1 mice, IV; type: in vivo; details: for Auclast / Cmax / MRT inf / Tmax / half-life / AUC(0-t) / clearance / Vd: intravenously 5 mg/kg; for blood–brain barrier crossing (in words) / clearance (in words): IV 5 mg/kg; for Cmax / MRT inf / Tmax / half-life / AUC(0-t) / clearance / Vd: male, mouse, iv; for half-life: read-out: Terminal t1/2; for Vd: read-out: Vss
Procedure: Analysis of pharmacokinetic parameters of 18A and 18B was performed by the Preclinical Pharmacology Core Lab (UT Southwestern Medical Center). Animal work described in this manuscript has been approved and conducted under the oversight of the UT Southwestern Institutional Animal Care and Use Committee and were carried out in accordance with relevant guidelines and regulations. UT Southwestern uses the “Guide for the Care and Use of Laboratory Animals” when establishing animal research standards. All methods are reported in accordance with ARRIVE guidelines. Compounds were suspended in 10% DMSO/20% PEG400/70% (30% HPβCD in water) at 0.484 mg/mL (18A) or at 0.5 mg/mL (18B). Compounds were administered to male CD1 mice (Charles River Laboratories, Wilmington, MA) IV via the tail vein at 5 mg/kg (0.30 mL dose volume for 18A, 0.35 mL dose volume for 18B). Mice were randomly assigned to time point groups and all investigators were aware of these assignments. After inhalation overdose of CO2, blood and tissues were collected from three mice per timepoint, at 5, 15, 30, 60, 240, 360, and 480 min post dosing, such that a mean concentration and standard deviation about the mean could be reported. Blood and tissues were also collected from mice dosed with Vehicle only at 480 min. Blood was collected using the anticoagulant ACD (acidified citrate dextrose) and plasma was isolated from the blood by centrifugation at 4 °C, 9600 × g for 10 min. After rinsing with PBS, tissues were weighed, snap-frozen in liquid nitrogen and stored at − 80 °C until processing. Brain was homogenized in a three-fold volume of PBS (weight by volume). Plasma and brain homogenates were extracted using a two-fold volume of methanol containing 0.15% formic acid and 37.5 ng/ml of an internal standard, n-benzylbenzamide (Sigma, St. Louis, MO). Samples were vortexed for 15 s, incubated at RT for 10 min and then centrifuged at 16,100 × g for 5 min at 4 °C. The supernatant was spun a second time and then analyzed by LC–MS/MS using a Sciex (Framingham, MA) 4000QTRAP® (positive ESI, multiple-reaction monitoring mode) after separation on an Agilent (Santa Clara, CA) C18 XDB column (5 micron packing, 50 × 4.6 mm size). The following separation gradient was used (Buffer A: water with 0.1% formic acid; Buffer B: MeOH with 0.1% formic acid): 0–1 min 5% B, 1–1.5 min gradient to 100% B, 1.5–3 min 100% B, 3–3.2 min gradient to 5% B, 3.2–4.5 min 5% B. For 18A, the transition (m/z) of 336.0/305.0 was monitored (retention time: 2.08 min); for 18B, the transition (m/z) of 336.1/169.0 was monitored (retention time: 2.09 min). The transition 212.1/91.1 (retention time 2.05 min) was monitored for the internal standard, n-benzylbenzamide. Tissues and plasma from untreated mice were used as controls to establish background noise for LC–MS/MS analysis of compound levels. Pharmacokinetic parameters were calculated using sparse sampling and the noncompartmental analysis tool in WinNonlin (Certara Corp, Princeton, NJ) for plasma and brain. Because mice were not perfused prior to collection of brain, the amount of compound estimated to be in the vasculature of the brain was subtracted using the measured plasma concentration and literature values for the volume of residual blood (30 µl/g tissue) in the brain Kwon[102].

SMILES: CCS(=O)(=O)Nc1ccc(Oc2ccc(F)cc2F)c(-c2cn(C)c(=O)c3[nH]ccc23)c1 [mivebresib]
- PGRN protein levels (PGRN protein levels [1]): significantly increased PGRN protein levels
- PGRN protein levels (PGRN protein levels [2]): significantly increased PGRN protein levels
- Kd (recombinant BRD4 BD1): ≤ 2.8 nM
- enhancement of BRD4 protein levels (BRD4 protein levels): ~ fourfold
- Kd (recombinant BRD4 BD2): ≤ 2 nM

SMILES: Cn1ccc2c(-c3cccnc3Oc3ccc(F)cc3)c[nH]c2c1=O [Compound 18B, 3-[2-(4-fluorophenoxy)pyridin-3-yl]-6-methyl-1,6-dihydro-7H-pyrrolo[2,3-c]pyridin-7-one]
- Auclast ([3]; Brain): 31579 ng·min/g
- blood–brain barrier crossing (in words) [3]: readily cross the blood–brain barrier
- clearance (in words) [3]: cleared quite rapidly
- Cmax ([3]; Brain): 1690 ng/g
- MRT inf ([3]; Brain): 17.6 min
- Tmax ([3]; Brain): 5 min
- half-life ([3]; Brain): 73 min
- AUC(0-t) ([3]; Plasma): 511 ng·h/mL
- Cmax ([3]; Plasma): 1620 ng/mL
- MRT inf ([3]; Plasma): 25.8 min
- Tmax ([3]; Plasma): 5 min
- clearance ([3]; Plasma): 5.61 mL/min
- half-life ([3]; Plasma): 140 min
- Vd ([3]; Plasma): 0.145 L

SMILES: Cn1cc(-c2cccnc2Oc2ccc(F)cc2)c2cc[nH]c2c1=O [Compound 18A, 4-(2-(4-fluorophenoxy)pyridin-3-yl)-6-methyl-1H-pyrrolo[2,3-c]pyridin-7(6H)-one]
- Auclast ([3]; Brain): 63285 ng·min/g
- blood–brain barrier crossing (in words) [3]: readily cross the blood–brain barrier
- clearance (in words) [3]: cleared quite rapidly
- Cmax ([3]; Brain): 2970 ng/g
- MRT inf ([3]; Brain): 16.7 min
- Tmax ([3]; Brain): 5 min
- half-life ([3]; Brain): 30 min
- AUC(0-t) ([3]; Plasma): 658 ng·h/mL
- Cmax ([3]; Plasma): 1780 ng/mL
- MRT inf ([3]; Plasma): 17.9 min
- Tmax ([3]; Plasma): 5 min
- clearance ([3]; Plasma): 3.67 mL/min
- half-life ([3]; Plasma): 27 min
- Vd ([3]; Plasma): 0.067 L
